Source: publication PMC10683482, “Offsetting Low-Affinity Carbohydrate Binding with Covalency to Engage Sugar-Specific Proteins for Tumor-Immune Proximity Induction” (ACS Central Science, 2023)
Read-outs that look alike come from different tables or passages of the source.

System: monoclonal anti-23F antibody
Test: BLI affinity of rhamnose probes for monoclonal anti-23F
Format: binding, human
Details: for koff: dissociation in 100 mM L-rhamnose; for anti-23F recognition of glycoside variant: 125 nM anti-23F association
From the text: Figure 1 Affinity determination of endogenous and monoclonal antibody sources for L-rhamnose glycoside variants. A. Chemical structures of rhamnose affinity probes. B/C. Approximation of antirhamnose antibody binding affinity for probes 1–3 using biolayer interferometry. B. Purified human serum IgG is used to estimate the affinity of endogenous polyclonal serum antirhamnose antibodies for each affinity probe 1–3. C. Monoclonal anti-23F antibody is used to estimate the potential affinity of vaccine-induced antirhamnose antibodies for each affinity probe 1–3. […] Association was monitored for 900 (B) or 600 (C) seconds. The loaded biosensor probe was then dipped into a dissociation solution of 100 mM L-rhamnose for 600 s. Association curves were fit to a two-phase association model in GraphPad Prism using Kfast to calculate kon. Dissociation curves were similarly fit to a two-phase decay using Kfast to calculate koff. TEXT PRINTED IN THE PICTURE: (B) no label printed: Polyclonal Human IgG: Kd ≈ 7 x10^-5 M | (C) no label printed: Monoclonal Anti-23F: Kd ≈ 6 x10^-6 M DOUBTS OF THE COPYIST ABOUT THIS PICTURE: Panel B, Kd ≈ 7 x10^-5 M: printed once in the plot with no link to a single curve, so it is unclear which of (1) α–O, (2) α–S and (3) β–S it applies to / Panel C, Kd ≈ 6 x10^-6 M: printed once in the plot with no link to a single curve, so it is unclear which of (1) α–O, (2) α–S and (3) β–S it applies to […]
The advancement of synthetic immunotherapeutic modalities targeting anti-rhamnose antibodies has been complicated by a lack of model monoclonal antibody to enable medicinal chemistry optimization. Previous studies relied on polyclonal antirhamnose sources (e.g., human/rabbit serum) for validation studies. We hypothesized that antibodies induced by vaccination against the 23F serotype of streptococcus pneumonia (which contains α-rhamnose) would serve as a source of novel monoclonal antibodies. FDA-approved vaccines (such as PPV23) can induce anti-23F antibodies, with patient-derived monoclonal anti-23F antibody sequences commercially available.[22]−[24] We proceeded to study anti-23F in BLI assays as done in Figure 1B (Figure 1C, association phase = 125 nM anti-23F). […] Furthermore, given the efficient recognition of α-rhamnose by both endogenous human polyclonal and monoclonal antirhamnose sources, it was selected as the ABD for subsequent cARM development.
General Notes and Materials […]
Biolayer Interferometry (BLI) General notes and Materials
IgG from human serum was purchased from Innovative Research (IHUI GGAP1000MG). Anti -23F antibody was purchased fr om Creative Biolabs (PABX -173). Biolayer Interferometry (BLI) was conducted using a ForteBio Octet Red96, and streptavidin biosensors (Sartorius - 18-5019) or ProG biosensors (Sartorius – 18-5082). For quench, a 5% skim milk (Nestle Carnation Instant Skim Milk) solution in 1X kinetics buffer was used. The instrument was set at 25 °C, with 1000 RPM, and acquisition rate of 5 Hz.
Each well of a black well plate (Greiner Bio -One - 655086) was filled with 200 µL of appropriate solution.
Dissociation buffer was comprised of L-rhamnose (100 mM, Sigma Aldrich – R3875-10G) in 1X kinetics buffer to reduce avidity contribution to dissociation rate (koff).
SDS-PAGE General notes and Materials […]
Carboxyfluorescein was purchased from Sigma Aldrich (21877 -5G-F). IgG from human serum was purchased from Innovative Research (IHUIGGAP1000MG). Anti -23F antibody was purchased from Creative Biolabs (PABX -173). Laemellie Buffer (2x) was purchased from Sigma Aldrich (S3401 -10VL).
Pre-cast Tris-Glycine Gels (4-20%) were purchased from Fisher Scientific (XP04202BOX). […]
A647-alkyne was purchased from Broadpharm (BP-28217). Gels were stained using Coomassie Stain from Bio Rad (1610786), and subsequently imaged using an Odyssey CLX imager. Gels were run at 90V for 15 minutes, followed by […]
ADCC Reporter Assay General notes and Materials […]

[1] = average of three anti-23F concentrations, read-out: Avg Kd

C[C@@H]1O[C@@H](OCc2cn(CCOCCNC(=O)OCCOCCOCCOCCOCCOCCOCCOCCNC(=O)CCCC[C@@H]3SC[C@@H]4NC(=O)N[C@@H]43)nn2)[C@H](O)[C@H](O)[C@H]1O [compound 1]
kon (125 nM Anti-23F): 1.1e+06 M⁻¹ s⁻¹
koff (125 nM Anti-23F): 5.591 s⁻¹
Kd (125 nM Anti-23F, read-out: Kd): 5.2 µM
anti-23F recognition of glycoside variant: uniquely specific for α-glycoside variants
kon (250 nM Anti-23F): 920000 M⁻¹ s⁻¹
koff (250 nM Anti-23F): 5.773 s⁻¹
Kd (250 nM Anti-23F, read-out: Kd): 6.2 µM
kon (500 nM Anti-23F): 630000 M⁻¹ s⁻¹
koff (500 nM Anti-23F): 4.673 s⁻¹
Kd (500 nM Anti-23F, read-out: Kd): 7.4 µM
Kd [1]: 6.3 ± 1.1 µM

C[C@@H]1O[C@@H](SCc2cn(CCOCCNC(=O)OCCOCCOCCOCCOCCOCCOCCOCCNC(=O)CCCC[C@@H]3SC[C@@H]4NC(=O)N[C@@H]43)nn2)[C@H](O)[C@H](O)[C@H]1O [compound 2]
kon (125 nM Anti-23F): 770000 M⁻¹ s⁻¹
koff (125 nM Anti-23F): 4.018 s⁻¹
Kd (125 nM Anti-23F, read-out: Kd): 5.2 µM
anti-23F recognition of glycoside variant: uniquely specific for α-glycoside variants
kon (250 nM Anti-23F): 730000 M⁻¹ s⁻¹
koff (250 nM Anti-23F): 4.378 s⁻¹
Kd (250 nM Anti-23F, read-out: Kd): 6 µM
kon (500 nM Anti-23F): 560000 M⁻¹ s⁻¹
koff (500 nM Anti-23F): 3.509 s⁻¹
Kd (500 nM Anti-23F, read-out: Kd): 6.2 µM
Kd [1]: 5.8 ± 0.5 µM
